Results from article PMC9718554, “Discovery of a fragment hit compound targeting D-Ala:D-Ala ligase of bacterial peptidoglycan biosynthesis” (Journal of Enzyme Inhibition and Medicinal Chemistry, 2022).
Residues, ends and D or L forms follow the SMILES beside them.

Target: T1, E. coli DdlB enzyme (D-alanine:D-alanine ligase) (Escherichia coli, UniProt P07862)
T1 construct: made in house; host or cells: E. coli
Experiment: biochemical
Conditions: fragment library screening; tested concentration 1.7 mM; read-out: DdlB RA

`C[C@H](NC(=O)[C@H](C)n1nnc2ccccc2c1=O)C(=O)O` [Compound Y040-2749] was tested, and the remaining activity at 1700 µM was 92%.

Same assay, conditions: fragment library screening; tested concentration 1.8 mM; read-out: DdlB RA

Point of comparison: `O=C(O)CCCn1cnc2ccc([N+](=O)[O-])cc2c1=O` [Compound Y044-6460], remaining activity at 1800 µM 63%. Against it:
- O=C(O)C[C@H]1NC(=O)N(CCc2cccc(F)c2)C1=O [Compound Y042-2983] — higher, 93%
- O=C(O)CCCc1nc2ccccc2c(=O)n1C1CC1 [Compound Y042-5065] — higher, 92%

Same assay, conditions: fragment library screening; tested concentration 1.9 mM; read-out: DdlB RA

Point of comparison: `O=C(Nc1cccc(F)c1)[C@H]1CCCC[C@H]1C(=O)O` [Compound Y203-6612], remaining activity at 1900 µM 93%. Against it:
- O=C(O)CCC(=O)N1CCO[C@H](c2ccccc2)C1 [Compound Y044-6579] — the same, 93%

Same assay, conditions: fragment library screening; tested concentration 2.0 mM; read-out: DdlB RA

Point of comparison: `O=C(O)c1cc(-c2cccnc2)nc2ccccc12` [Compound Y042-7719], remaining activity at 2000 µM 85%. Against it:
- O=C(O)c1ccc(N2Cc3ccccc3C2=O)cc1 [Compound Y042-2866] — lower, 82%
- O=C(O)CC1CCN(c2ccc(Cl)nn2)CC1 [Compound Y043-2007] — higher, 90%

Same assay, conditions: residual activity of DdlB, fragment library screening, tested concentration 3.2 mM; read-out: DdlB RA

Work on `C#CC(=O)NC(C)c1ccc(C)cc1` (centres unmarked) [Compound T001-1588] yielded a remaining activity at 3200 µM of 93%.

Same assay, conditions: residual activity of DdlB, fragment library screening, tested concentration 3.6 mM; read-out: DdlB RA

`O=C1CCn2ncnc2N1` [Compound Y021-0743] showed a remaining activity at 3600 µM of 98%.

Same assay, conditions: residual activity; tested concentration 1.7 mM; read-out: DdlB RA

Point of comparison: `O=C(Nc1ccc(Cl)cc1)Nc1ccccc1C(=O)O` [Compound Y020-0051], remaining activity at 1700 µM 119%. Against it:
- CCc1nnc(C2CCCN(C(=O)C3CCCCC3)C2)[nH]1 (centres unmarked) [Compound T629-1509] — lower, 71%

Same assay, conditions: residual activity; tested concentration 1.8 mM; read-out: DdlB RA

Point of comparison: `O=C(c1n[nH]c2ccccc12)N1C[C@H]2CCC[C@@H](O)[C@H]2C1` [Compound S890-0272], remaining activity at 1800 µM 95%. Against it:
- O=S(=O)(c1cccnc1)N1CCC2(CCC2O)CC1 (centres unmarked) [Compound S971-1046] — lower, 89%
- CCCNC(=O)N1CCC(F)(C(=O)NC2CC2)CC1 [Compound T502-0828] — higher, 97%
- O=C(C1CCC1)N1CCC(F)(C(=O)N2CCCC2)CC1 [Compound T502-1244] — higher, 97%
- Cc1ccccc1C(=O)N1CCCN(C)c2ccccc21 [Compound T599-3543] — lower, 72%
- COc1cccc(C(=O)Nc2ccccc2C(=O)O)c1 [Compound Y030-1668] — higher, 97%

Same assay, conditions: residual activity; tested concentration 1.9 mM; read-out: DdlB RA

Point of comparison: `O=C1CS(=O)(=O)C2(CCNCC2)N1c1ccccc1` [Compound T140-0972], remaining activity at 1900 µM 93%. Against it:
- Cc1nnc(C2CCN(C(=O)c3ccco3)CC2)[nH]1 [Compound T630-1922] — lower, 58%
- Cc1cc(NC(=O)C2CC(=O)N(C3CCCCC3)C2)no1 (centres unmarked) [Compound Y031-2007] — lower, 83%
- CN1CCN(C(=O)Nc2ccccc2C(=O)O)CC1 [Compound Y043-2499] — lower, 92%

Same assay, conditions: residual activity; tested concentration 2.0 mM; read-out: DdlB RA

Point of comparison: `CC1CN(S(=O)(=O)c2ccc(F)cc2)CC(C)O1` (centres unmarked) [Compound Y030-1235], remaining activity at 2000 µM 93%. Against it:
- O=C(O)c1ccccc1NC(=O)N1CCOCC1 [Compound Y043-2494] — higher, 96%

Same assay, conditions: residual activity; tested concentration 2.1 mM; read-out: DdlB RA

Point of comparison: `CC1CCN(C(=O)C2N(C(C)C)C(=O)C23CCCC3)CC1` (centres unmarked) [Compound T964-0245], remaining activity at 2100 µM 95%. Against it:
- O=C1CCC2(CCN(S(=O)(=O)c3ccccc3)C2)N1 (centres unmarked) [Compound S914-0001] — higher, 101%
- CCS(=O)(=O)N1CCc2[nH]c(-c3ccccc3)nc2C1 [Compound T147-0013] — lower, 81%
- CCn1cnnc1CC1CCCN(C(=O)c2ccco2)C1 (centres unmarked) [Compound T501-0329] — lower, 69%
- CCS(=O)(=O)N1CCC(F)(C(=O)N2CCCC2)CC1 [Compound T502-1464] — lower, 83%
- CC(O)C1CCN(Cc2ccc(Br)o2)CC1 (centres unmarked) [Compound T786-0030] — lower, 94%
- O=C1C(O)C2(CCCCC2)N1C1CCNCC1 (centres unmarked) [Compound T965-0058] — lower, 90%
- CC(CCc1ccccc1)NC(=O)N1CCOCC1 (centres unmarked) [Compound Y030-6075] — lower, 94%
- CCS(=O)(=O)N1CCC(C(=O)N2CCCCC2)CC1 [Compound Y050-2528] — higher, 97%
- CC1CN(S(=O)(=O)c2ccc(F)c(F)c2)CC(C)O1 (centres unmarked) [Compound Y202-8173] — the same, 95%

Same assay, conditions: residual activity; tested concentration 2.2 mM; read-out: DdlB RA

Point of comparison: `Cc1onc(-c2ccccc2Cl)c1C(=O)NCC#N` [Compound Y030-1543], remaining activity at 2200 µM 98%. Against it:
- Cc1cccnc1C(=O)N1CCC2(CC1)CCC2(C)O (centres unmarked) [Compound S971-1225] — lower, 97%
- CCNC(=O)N1CCC(F)(C(=O)N2CCCC2)CC1 [Compound T502-1430] — lower, 89%
- CCC(C)(C)NC(=O)C1CC(=O)N(c2ccccc2)C1 (centres unmarked) [Compound Y031-3748] — higher, 101%

Same assay, conditions: residual activity; tested concentration 2.3 mM; read-out: DdlB RA

Point of comparison: `CC1=CC(C)(C)Nc2c(C(=O)O)cccc21` [Compound Y021-0768], remaining activity at 2300 µM 105%. Against it:
- CC1CC(C)(C)Nc2c(C(=O)O)cccc21 (centres unmarked) [Compound Y021-0767] — lower, 97%

Same assay, conditions: tested concentration 1.7 mM; read-out: DdlB RA

Point of comparison: `CNC(=O)CCN1C(=O)CSC1c1ccccc1Cl` (centres unmarked) [Compound V026-8598], remaining activity at 1700 µM 109%. Against it:
- O=C(c1ccccc1)N1CCC(c2nnc(C3CC3)[nH]2)CC1 [Compound T630-2594] — lower, 91%
- Cc1cccc(C2SC(C)C(=O)N2CC(=O)N(C)C)c1 (centres unmarked) [Compound V017-7801] — lower, 98%
- NS(=O)(=O)c1ccc(CNC(=O)N2CCOCC2)cc1 [Compound Y030-3729] — lower, 104%
- Cc1ccc(S(N)(=O)=O)cc1NC(=O)c1cccnc1 [Compound Y202-7310] — lower, 100%

Same assay, conditions: tested concentration 1.8 mM; read-out: DdlB RA

Point of comparison: `CCCC(C)C(=O)Nc1ccc(S(N)(=O)=O)cc1` (centres unmarked) [Compound Y030-4922], remaining activity at 1800 µM 77%. Against it:
- NS(=O)(=O)c1ccc(CNC(=O)C2CCCO2)cc1 (centres unmarked) [Compound Y030-8649] — higher, 97%
- Cc1ccc(S(N)(=O)=O)cc1C(=O)NCC(C)C [Compound Y050-1744] — higher, 83%

Same assay, conditions: tested concentration 1.9 mM; read-out: DdlB RA

Point of comparison: `CNC(=O)CN1C(=O)CSC1c1ccc(F)cc1` (centres unmarked) [Compound V022-4411], remaining activity at 1900 µM 92%. Against it:
- CNCCN1C(=O)C(C)SC1c1ccccc1C (centres unmarked) [Compound V007-8918] — lower, 72%

Same assay, conditions: tested concentration 2.0 mM; read-out: DdlB RA

Point of comparison: `CCCCC(=O)Nc1ccc(S(N)(=O)=O)cc1` [Compound Y030-9753], remaining activity at 2000 µM 96%. Against it:
- O=C(O)c1ccccc1NC(=O)C1CCCCC1 [Compound Y030-1673] — higher, 104%

Same assay, conditions: tested concentration 2.1 mM; read-out: DdlB RA

Point of comparison: `O=C(O)C(Cc1ccccc1)Nc1ncccn1` (centres unmarked) [Compound Y042-3157], remaining activity at 2100 µM 90%. Against it:
- Cc1c(C(=O)O)nnn1-c1ccc2c(c1)CCC2 [Compound T640-0079] — higher, 92%
- CC(=O)N1CCC2(CCc3ccc(O)cc3O2)CC1 [Compound Y041-9811] — higher, 94%
- NCC(=O)N[C@@H](Cc1ccc(O)cc1)C(=O)O [Compound Y043-8421] (H-Gly-Tyr-OH) — higher, 95%

Same assay, conditions: tested concentration 2.2 mM; read-out: DdlB RA

`CC(=O)NCC1CNCC12CCCCC2` (centres unmarked) [Compound S855-0002] gave a remaining activity at 2200 µM of 85%.

Same assay, conditions: tested concentration 2.3 mM; read-out: DdlB RA

Point of comparison: `CC(O)C1CCN(Cc2ccncc2)CC1` (centres unmarked) [Compound T786-0016], remaining activity at 2300 µM 65%. Against it:
- CCCn1c(C)cnc1C1CCNC1 (centres unmarked) [Compound T158-0004] — higher, 86%
- Cc1ccc(F)c(-n2cc(C(=O)O)nn2)c1 [Compound T640-0432] — higher, 100%
- Cc1cc(O)n(C2CCS(=O)(=O)C2)n1 (centres unmarked) [Compound Y020-9160] — higher, 99%
- CC(C)(C)NS(=O)(=O)Cc1ccc(Cl)cc1 [Compound Y031-1123] — higher, 91%
- O=c1[nH]c2ncc(Br)cc2o1 [Compound Y042-2897] — higher, 92%
- O=C(O)CCc1nnc2ccccn2c1=O [Compound Y042-3065] — higher, 102%
- CCOc1ccc(S(N)(=O)=O)cc1C [Compound Y050-1019] — higher, 79%

Same assay, conditions: tested concentration 2.4 mM; read-out: DdlB RA

Point of comparison: `CCS(=O)(=O)Nc1c(C)cc(C)cc1C` [Compound Y202-7340], remaining activity at 2400 µM 90%. Against it:
- C#CC(=O)NC(C)c1c(C)nn(C)c1C (centres unmarked) [Compound T001-1381] — lower, 87%
- CCNC(=O)N1CCCN(C)c2ccccc21 [Compound T599-3176] — higher, 96%
- CC(C)N1C(=O)C2(CCCC2)C1C(=O)O (centres unmarked) [Compound T964-0325] — higher, 92%
- CC(=O)c1cc2c(cc1C)NC(C)(C)CC2C (centres unmarked) [Compound Y021-0953] — higher, 97%
- CC1CCCN(S(=O)(=O)Cc2ccccc2)C1 (centres unmarked) [Compound Y030-1494] — lower, 79%
- O=C(O)c1ccnc(N2CCOCC2)c1 [Compound Y043-8163] — lower, 89%
- CC(C)CS(=O)(=O)N1CCc2ccccc2C1 [Compound Y200-6914] — lower, 73%

Same assay, conditions: tested concentration 2.5 mM; read-out: DdlB RA

In the case of `CC1(O)CCC12CCN(C(=O)CC1CC1)CC2` (centres unmarked) [Compound S971-1224], the remaining activity at 2500 µM is reported as 75%.

Same assay, conditions: tested concentration 2.7 mM; read-out: DdlB RA

For `CC1=CC(C)(C)N(C)c2cc(O)ccc21` [Compound Y021-0895], the remaining activity at 2700 µM was 88%.

Same assay, conditions: tested concentration 2.8 mM; read-out: DdlB RA

Point of comparison: `C#CC(=O)NCc1ccc(F)cc1F` [Compound T001-0851], remaining activity at 2800 µM 93%. Against it:
- CC(C)NS(=O)(=O)c1ccc(F)cc1 [Compound Y030-0983] — higher, 94%

Same assay, conditions: tested concentration 2.9 mM; read-out: DdlB RA

Point of comparison: `CC#CC(=O)N(C)CCc1cn[nH]c1` [Compound T001-1282], remaining activity at 2900 µM 86%. Against it:
- CC#CC(=O)NCc1cc(F)ccc1F [Compound T001-0919] — higher, 89%
